The subject of the assay is LP-1 cell line. Nature of the assay: Cell-based pERK ELISA, LP-1 cells. The settings on record: LP-1 human multiple myeloma cells, FGF-1/Heparin stimulation; read-out: IC50 against the LP-1 cell line (pERK ELISA). The protocol: Enzyme buffer A: 8 mM MOPS, pH 7.0, 0.2 mM EDTA, 10 mM MgAcetate Enzyme buffer B: 8 mM MOPS, pH 7.0, 0.2 mM EDTA, 2.5 mM MnCl2, 10 mM MgAcetate Enzyme buffer C: 8 mM Mops, pH 7.0, 0.2 mM EDTA, 10 mM MnCl2, 10 mM MgAcetate. Cell-Based pERK ELISA Method
LP-1 or JIM-1 multiple myeloma cells were seeded in 96 well plates at 1×10^6 cells/ml in 200 μl per well in serum free media. HUVEC cells were seeded at 2.5×10^5 cells/ml and allowed to recover for 24 h prior to transfer to serum free media. Cells were incubated for 16 h at 37° C. prior to the addition of a test compound for 30 minutes. Test compounds were administered at a 0.1% final DMSO concentration. Following this 30 minute incubation a FGF-1/Heparin (FGF-1 at 100 ng/ml final and Heparin at 100 ug/ml) mixture or VEGF^165 (100 ug/ml) was added to each of the wells for a further 5 minutes. The media was removed and 50 ul ERK ELISA lysis buffer (R and D Systems DuoSet ELISA for pERK and Total ERK #DYC-1940E, DYC-1018E) added. ELISA plates and standards were prepared according to the standard DuoSet protocols and the relative amounts of pERK to total ERK in each sample calculated according to the standard curve.
In particular, compounds of the invention were tested against the LP-1 cell line (DSMZ no.: ACC 41) derived from human multiple myeloma.
Background: ELISA stands for enzyme-linked immunosorbent assay.

Bounds are passed on as bounds.

For `O=C(c1ccn2c(-c3cccc(Nc4nncs4)c3)cnc2c1)N1CCC1` [Example 2, Azetidin-1-yl-{3-[3-([1,3,4]thiadiazol-2-ylamino)-phenyl]-imidazo[1,2-a]pyridine-7-yl}-methanone], the IC50 (usually the concentration that inhibits the measured activity by half) is < 1000 nM.

The record behind these values is patent publication US8859582B2, “Bicyclic heterocyclic compounds as protein tyrosine kinase inhibitors” (Astex Therapeutics Limited, priority 2007, dated 2014).
